We go through three molecules from patent publication US10159736B2, “Plant virus particles for delivery of photosensitive agents” (Case Western Reserve University, priority 2016, dated 2018).

One series deals with B16F10. The settings on record: cited from earlier work.
Series [1] can be described thus: Storage in the fridge, visual examination. In kind it is physicochemical. The settings on record: stored in the fridge over a period of a month.
Series [2] deals with B16F10 melanoma cells. Put plainly: LIVE/DEAD cell viability assay of melanoma cells. In kind it is cell-based. The note with it: 5.0 μM, 8 hours, light 30 minutes. From the text:
The MTT assay is based on a yellow tetrazolium dye that is reduced to purple formazan via NAD(P)H-dependent oxidoreductase enzymes. This reduction is highly dependent on cellular metabolism in the mitochondria and is not high in cells with low cellular metabolic activity. Liu et al., Journal of neurochemistry, 69 (2), 581-93 (1997). Because photosensitizers are known to impact the functionality of the mitochondria, the MTT assay may be compromised as a result of impaired mitochondrial activity. Therefore, LIVE/DEAD cell viability assays were performed to further confirm therapeutic efficacy and cell killing. Cells were incubated with 5.0 μM of free Zn-EpPor or Zn-EpPorTMV, or corresponding controls, for 8 hours, washed, and illuminated for 30 minutes. This drug concentration was based on the MTT assay; it is over four times the IC50 value in B16F10 melanoma and should give maximal cell killing. The LIVE/DEAD assay was applied the next day, imaged, and images were analyzed using ImageJ to determine percent cell viability (FIG. 9B). […] On the contrary, cells exposed to both Zn-EpPor or Zn-EpPorTMV and light had 100% cell killing.
The staining procedure was as per manufacturer's recommendation.

Series [3] concerns B16F10 melanoma cells. Put plainly: Flow cytometry of cell uptake (Zn-EpPor fluorescence). In kind it is cell-based. The note with it: 10^6 particles/cell or corresponding amount of free drug, 8 hours. The protocol:
Cell binding and uptake of the PDT delivery system was measured using both flow cytometry and confocal microscopy. […] Cell uptake was measured as a function of Zn-EpPor fluorescence (FIG. 8A). […] These studies were complemented with confocal microscopy to determine the intracellular fate of Zn-EpPor delivered by TMV. Following an 8-hour incubation of B16F10 cells with Zn-EpPorTMV particles, cells were fixed and stained with wheat germ agglutinin. Confocal fluorescence microscopy confirmed that Zn-EpPor is both taken up by the cells, and also dispersed throughout the cytoplasm (FIG. 8B), allowing it to exert their mechanism of action. The intracellular distribution of the Zn-EpPor drug was consistent with intracellular release of the cargo. We hypothesize that TMV is taken up and trafficked to the endolysosome, as previously reported. Wen et al., Bioconjugate chemistry, 26 (1), 51-62 (2015). […]
Confluent B16F10 cells were removed using Hank's based cell dissociation buffer (ThermoFisher) and added to 96-well v-bottom plates (200 μL/well, 2.5×10^6 cells/mL). […] Cells were washed 2 times, then resuspended in FACS buffer and analyzed on a BD FACSAria flow cytometer. Live cells were gated and 10,000 events were recorded; all experiments were carried out in triplicate. Data were analyzed on FlowJo 8.6.3 software.
For orientation: A flow cytometer gives signals particle by particle.

Series [4] has as its system B16F10 melanoma cells. Put plainly: MTT cell viability assay after white light illumination (Example II). For orientation: Tetrazolium assays rely on reduction of a dye to a coloured formazan, in cell work by metabolically active cells.
Method: Untreated cells and drug-free TMV carrier were used as controls. The TMV concentration was normalized to the drug-loaded concentration and corresponded to the highest amount of TMV used to determine the IC50 curves (FIG. 9A). Drug candidates and controls were incubated with B16F10 cells for 8 hours, washed, and then exposed to white light from a Vivitek D950HD projector under a rectangle (10.5 cm×11 cm) for 30 minutes. Following illumination, cells were returned to the incubator for 48 hours. Cell viability was assessed using an MTT cell viability assay and analyzed using GraphPad Prism.
Cell viability was assayed using MTT and LIVE/DEAD assays. Confluent cells were removed using 0.05% (w/v) trypsin-EDTA, added to 96-well plates (100 μL/well, 2×10^4 cells/mL), and grown overnight. Native TMV, drug loaded Zn-EpPorTMV, vs. free Zn-EpPor were added to cells using 0.025, 0.05, 0.1, 0.25, 0.5, 1.0, and 5.0 μM Zn-EpPor; cells were incubated for 8 hours at 37° C. and 5% CO2. Assays were done in triplicates and repeated at least twice. […] Cell viability was assessed using an MTT cell proliferation assay (ATCC); the procedure was as per manufacturer's recommendation. Alternatively, cell viability and cytotoxicity was determined using the LIVE/DEAD Viability/Cytotoxicity Kit for mammalian cells (ThermoFisher). […] Images were analyzed for percentage cell viability using ImageJ 1.47d.
The next series deals with RAW 264.7 macrophages. The experiment in a line: LIVE/DEAD cell viability assay of macrophages after photodynamic therapy. In kind it is cell-based. As to the method: Uptake of PS-CPMV* and its efficacy for PDT of RAW 264.7 murine macrophages was initially tested using a LIVE/DEAD cell viability assay in a 96-well plate. The macrophages were allowed 8 h to take up either PS-CPMV* at a concentration of 5.0 μM PS or CPMV, CPMV*, and PS controls normalized according to PS or CPMV concentration. After washing, PDT was initialized using a mirror setup where light from a projector was reflected on the cell plate for 30 min. Cells were incubated overnight, then stained with a combination of calcein-AM and ethidium homodimer-1 to detect live and dead cells, respectively (FIG. 4a).
RAW 264.7 macrophages were seeded overnight in 96-well plates, with one plate used as a dark control, at a concentration of 10,000 cells/100 μL Dulbecco's modified Eagle's medium (DMEM, Gibco) supplemented with 10% (v/v) fetal bovine serum (FBS, Atlanta Biologicals) and 1% (v/v) penicillin-streptomycin (pen-strep, Life Technologies). Cells were then incubated for 8 h at 37° C. and 5% CO2 with triplicates of CPMV, CPMV*, PS-CPMV*, or PS corresponding to 5.0 μM PS or normalized for nanoparticle concentration accordingly. […] Cell viability was determined using a LIVE/DEAD assay for mammalian cells (Thermo Fisher) following manufacturer's procedures for cell staining and using a Zeiss Axio Observer Z1 motorized FL inverted microscope for imaging. […]

As for `C=Cc1c(C)c2cc3nc(c(CC(=O)N[C@@H](CC(=O)O)C(=O)O)c4[nH]c(cc5nc(cc1[nH]2)C(C)=C5CC)c(C)c4C(=O)O)[C@@H](CCC(=O)O)[C@@H]3C` [Talaporfin, talaporfin], in the series with B16F10 (B16F10, previously reported), the IC50 (commonly the point on the concentration scale where inhibition reaches its midpoint) is 8.5 µM.
For the molecule `C#Cc1ccc(C2=C3C=CC(=N3)C(c3cc[n+](C)cc3)=c3ccc4[n]3[Zn][n]3c2ccc3C(c2cc[n+](C)cc2)=C2C=CC(=N2)C=4c2cc[n+](C)cc2)cc1.[I-].[I-].[I-]` [Zn-EpPor, 5-(4-ethynylphenyl)-10,15,20-tris-(4-methylpyridin-4-ium-1-yl)porphyrin-zinc(II) triiodide], in series [1], the dispersion on storage entry was “aggregation and sedimentation”. In the series on B16F10 melanoma cells [2], this molecule returned a cell killing of 100%. Moreover, the “mean fluorescence intensity (MFI)” value in the series on B16F10 melanoma cells [3] was determined as 956. Further, in the series on B16F10 melanoma cells [4] (8 hours incubation, white light 30 minutes, MTT after 48 hours, concentration as Zn-EpPor), inhibition was half-maximal at 0.54 µM (IC50). Further, the “cell killing in the dark” value in the series on B16F10 melanoma cells [4] (no illumination) is “no cell killing was observed”. The “elimination of macrophages after PDT” value in the series with RAW 264.7 macrophages (5.0 μM PS, 8 h uptake, light 30 min, staining next day) is reported as “completely eliminating the macrophages”. Besides, the “cytotoxicity in dark controls” value in the series on RAW 264.7 macrophages (absence of light therapy) was “no cytotoxicity”.
Regarding porfimir sodium [Photofrin], in the series on B16F10 (melanin-heavy cells, such as the B16F10 cell line), the “efficacy in pigmented melanoma” value is given as “ineffective”.
